# Experiment: in vitro
# Settings: human, hela cells, % viability
smiles,measurement,value
O=C(NC(c1ccccc1)c1ccccc1)N1CCN(CCc2ccccc2)CC1 [CBK158905],"viability at 28.5 h, 10 µM",101%
Cc1ccc(NC(=O)COc2cccnc2)c(C)n1 [CBK200379],"viability at 28.5 h, 10 µM",102%
CCCC/C=C/c1nccnc1NCCc1ccncc1 [CBK037370],"viability at 28.5 h, 10 µM",99.9%
CCOC(=O)C(C)n1nc(C)n2c(cc3ccsc32)c1=O (centres unmarked) [CBK284079],"viability at 28.5 h, 10 µM",96.2%
Cc1nnc(CN(CC2CCCO2)C2CCCC2)n1C1CC1 (centres unmarked) [CBK304147],"viability at 28.5 h, 10 µM",95.5%
O=[N+]([O-])c1ccccc1S(=O)(=O)N1CCN(C2CCCCCC2)CC1 [CBK264171G],"viability at 28.5 h, 10 µM",95.4%
CN1CCN(CCCCn2nc3n(c2=O)-c2ccccc2OC3(C)C)CC1 [CBK023953C],"viability at 28.5 h, 10 µM",95.8%
O=C(CO)N1CC2(CCN(Cc3ccc(Cl)c(Cl)c3)CC2)c2ccccc21 [CBK131495],"viability at 28.5 h, 10 µM",89.5%
COc1ccccc1NC(=O)CN(c1ccc(C)cc1)S(=O)(=O)c1ccc(F)cc1 [CBK262718],"viability at 28.5 h, 10 µM",91.2%
Cn1cc(-c2nccnc2OCCN2CCCC2=O)cn1 [CBK107068],"viability at 28.5 h, 10 µM",106%
O=C(c1cccc(-c2cc3ccccc3oc2=O)c1)N1CCN(c2ccc([N+](=O)[O-])cc2Cl)CC1 [CBK269704],"viability at 28.5 h, 10 µM",101%
O=C1Nc2ccc(S(=O)(=O)NCC(O)c3ccc([N+](=O)[O-])cc3)c3cccc1c23 (centres unmarked) [CBK266745],"viability at 28.5 h, 10 µM",88.1%
C[C@@H](Cn1nnc2ccccc21)NC(=O)Cc1cccs1 [CBK282312],"viability at 28.5 h, 10 µM",92.8%
CCCS(=O)(=O)n1c(=O)n(CC(=O)c2ccc(N(CC)CC)cc2)c2ccccc21 [CBK106504],"viability at 28.5 h, 10 µM",105%
O=C(CCS(=O)(=O)c1ccccc1)NCc1ccccc1OC1CCNC1 (centres unmarked) [CBK028296T],"viability at 28.5 h, 10 µM",95.9%
CC(C(=O)N1c2ccccc2Sc2ccccc21)N1C(=O)c2ccccc2C1=O (centres unmarked) [CBK018045],"viability at 28.5 h, 10 µM",105%
CC(C)(C)C(=O)Nc1ccc(Cc2ccc(NC(=O)C(C)(C)C)c(C(=O)O)c2)cc1C(=O)O [CBK261393],"viability at 28.5 h, 10 µM",104%
OCCN1CC2(CCN(CCc3c[nH]c4ccccc34)CC2)c2ccccc21 [CBK144607T],"viability at 28.5 h, 10 µM",94.2%
O=C(NCc1ccc2c(c1)OCO2)c1cnc(-c2ccc(Cl)cc2)c(-c2ccco2)c1 [CBK037547],"viability at 28.5 h, 10 µM",98.3%
CN(C)CCCNc1ccc(C(F)(F)F)cn1 [CBK269414],"viability at 28.5 h, 10 µM",86.2%
Cc1ccnc(SCC(=O)N2CCc3ccccc3C2)n1 [CBK288218],"viability at 28.5 h, 10 µM",91.7%
OC(COc1cccc2ccccc12)CN1CCN(C(c2ccccc2)c2ccccc2)CC1 (centres unmarked) [CBK007591],"viability at 28.5 h, 10 µM",93.1%
Cc1ccc(SCC(=O)Nc2cc(C)on2)cc1 [CBK057070],"viability at 28.5 h, 10 µM",115%
O=C1CSC2c3ccccc3C(=O)N2c2ccccc21 (centres unmarked) [CBK113670],"viability at 28.5 h, 10 µM",108%
NCCn1cc(-c2cccc(F)c2)c(C2CCOCC2)n1 [CBK281696],"viability at 28.5 h, 10 µM",91.1%
CN1CCN(c2cc(-c3ccccc3N(C)C)nc3ccnn23)CC1 [CBK037158],"viability at 28.5 h, 10 µM",108%
COc1ccc(C(=O)N2CCC3(CCCN(C(=O)c4cccnc4)C3)C2)cc1OC (centres unmarked) [CBK131668],"viability at 28.5 h, 10 µM",97.8%
O=C(Nc1ncn(CC(=O)N2CCCCCC2)n1)c1ccsc1 [CBK304974],"viability at 28.5 h, 10 µM",99.4%
CCOc1ccc2[nH]c(C(=O)N(C)CCN3CCCCC3)c(C)c2c1 [CBK282699],"viability at 28.5 h, 10 µM",86.3%
CCC1(CC)OC(N[C@@H](C)c2ccc3ccccc3c2)=NC1=O [CBK123982],"viability at 28.5 h, 10 µM",90.2%
Cc1ccc(S(N)(=O)=O)cc1CNC(=O)Nc1cccc(F)c1 [CBK093516],"viability at 28.5 h, 10 µM",83.9%
Cc1sc2ccc(-c3ccccc3)cc2[n+]1CCCS(=O)(=O)[O-] [CBK260947],"viability at 28.5 h, 10 µM",90.7%
CC1=NNC(=S)NC(C)(C)C1 [CBK021597],"viability at 28.5 h, 10 µM",120%
COc1ccc(C(CNCC(O)COc2cccc3c2CCCC3)c2ccccc2)cc1 (centres unmarked) [CBK028144],"viability at 28.5 h, 10 µM",105%
CCCn1nc(C)c(-c2cncn2CC(C)n2nc(C)cc2C)c1C (centres unmarked) [CBK281793],"viability at 28.5 h, 10 µM",103%
OCc1ccccc1-c1cn2ccnc2c(Nc2ccccc2)n1 [CBK037999],"viability at 28.5 h, 10 µM",108%
Cc1nnc2c(=O)n(CC(=O)N3CCN(C(C)C)CC3)c3cccnc3n12 [CBK288601],"viability at 28.5 h, 10 µM",94.3%
CC(CN1CCOCC1)OC(=O)c1ccco1 (centres unmarked) [CBK264606C],"viability at 28.5 h, 10 µM",92.9%
COc1ccc(C2CC(c3ccc(NS(C)(=O)=O)cc3)=NN2C(=O)CCCC(=O)O)cc1 (centres unmarked) [CBK297780],"viability at 28.5 h, 10 µM",116%
CN(C)c1cc(=O)c2cc3c(cc2o1)CCC3 [CBK010017],"viability at 28.5 h, 10 µM",67.2%
COC(=O)C(NC(=O)c1cnc(-c2ccc(Cl)cc2)c(-c2ccc(O)cc2)c1)c1ccccc1 (centres unmarked) [CBK036723],"viability at 28.5 h, 10 µM",90.6%
COc1ccc(-n2c(S)nnc2-c2cc(C(C)(C)C)n[nH]2)cc1 [CBK269071],"viability at 28.5 h, 10 µM",97.9%
C=CCNC(=O)Cn1cccc2cc(-c3ccc(OC)cc3)nc1-2 [CBK285348],"viability at 28.5 h, 10 µM",92.4%
COc1ccc(CCNC(=O)CCn2cncn2)cc1 [CBK305881],"viability at 28.5 h, 10 µM",105%
Cc1ccccc1-c1cncc(C2CCN(C(=O)CCOc3ccccc3)CC2)n1 [CBK286154],"viability at 28.5 h, 10 µM",99%
CCN(CC)C(=O)CN1CCN(c2nccnc2OC)CC1 [CBK084221],"viability at 28.5 h, 10 µM",83.9%
CC(NC(=O)c1ccccc1)c1nnc(SCC(=O)c2ccccc2)n1C (centres unmarked) [CBK269644],"viability at 28.5 h, 10 µM",82.3%
Cc1ncc2c(n1)[C@@H]1CN(C(=O)Cc3cccs3)C[C@@H]1CC2 [CBK284491],"viability at 28.5 h, 10 µM",89.3%
COc1ccc(-c2ccc(OC)cc2C(=O)Nc2cccc(-n3cccn3)c2)cc1 [CBK285818],"viability at 28.5 h, 10 µM",94.6%
COCCNC(=O)c1cc(-c2ccccc2C)cnc1NS(C)(=O)=O [CBK106422],"viability at 28.5 h, 10 µM",82.9%
CCOc1nc(NCCC2=CCCCC2)nc(OCC)n1 [CBK027387],"viability at 28.5 h, 10 µM",86.9%
C=CCn1c(SCC(=O)Nc2ccc(C(=O)OC)cc2)nnc1-c1ccc(Br)cc1 [CBK101797],"viability at 28.5 h, 10 µM",92.8%
Clc1ccc(CN2CCC(Oc3cncc(OCCN4CCOCC4)n3)C2)cc1Cl (centres unmarked) [CBK084477],"viability at 28.5 h, 10 µM",91.4%
Cn1c(C(=O)N2CCc3ccccc32)cc2ccccc21 [CBK200406],"viability at 28.5 h, 10 µM",110%
Cc1cccc(OCCCC(=O)Nc2ccc(S(N)(=O)=O)cc2)c1C [CBK267963],"viability at 28.5 h, 10 µM",90.8%
CC(Oc1ccc(C(C)(C)C)cc1)C(=O)Nc1nnc[nH]1 (centres unmarked) [CBK267431],"viability at 28.5 h, 10 µM",94.8%
CC1CCc2c(sc(NC(=S)NC(=O)c3cc4ccccc4o3)c2C#N)C1 (centres unmarked) [CBK266319],"viability at 28.5 h, 10 µM",101%
Cc1csc(C(Cc2cccs2)NC(=O)Cc2c(C)[nH]c(=O)[nH]c2=O)n1 (centres unmarked) [CBK286345],"viability at 28.5 h, 10 µM",89.7%
Cc1cc(NC(=O)CCC2CCCCC2)nc2c1c(=O)oc1ccccc12 [CBK291125],"viability at 28.5 h, 10 µM",111%
OCCN1CC2(CCN(CC3COc4ccccc4O3)CC2)c2ccccc21 (centres unmarked) [CBK143955],"viability at 28.5 h, 10 µM",86.7%
CC(C)=C(NC(=O)c1ccccc1)C(=O)Nc1cccc(C(=O)O)c1 [CBK058180],"viability at 28.5 h, 10 µM",105%
O=C(O)Cc1nnnn1-c1ccccc1 [CBK262984],"viability at 28.5 h, 10 µM",102%
CCCN(Cc1cccs1)C1Cc2cc(OC)c(OC)cc2C1 [CBK017567C],"viability at 28.5 h, 10 µM",96.8%
Cc1c(C(=O)N2CCCC(c3cnccn3)C2)oc2c(F)cccc12 (centres unmarked) [CBK285302],"viability at 28.5 h, 10 µM",96.3%
CCCc1nnc(NC(=O)CN2CCc3c(c(CO)nn3C)C2)s1 [CBK307172],"viability at 28.5 h, 10 µM",98.4%
O=C(NC[C@H]1C[C@@H]2CC[N@]1C[C@@H]2CN1CCN(c2ccccn2)CC1)Nc1ccsc1 [CBK289113],"viability at 28.5 h, 10 µM",101%
CC(C)(C)C1=CC2=NC3(CCS(=O)(=O)CC3)[C@@H]3C[C@@H](O)[C@@H](O)[C@@H]3N2O1 [CBK303247],"viability at 28.5 h, 10 µM",92%
CCn1cc(CN2CCCN(C(=O)c3cn4ccccc4n3)CC2)cn1 [CBK304784],"viability at 28.5 h, 10 µM",98.3%
Cc1ccc(S(=O)(=O)NCCSCc2cccc(Cl)c2)cc1[N+](=O)[O-] [CBK264116],"viability at 28.5 h, 10 µM",93.4%
CC(=O)NCCC1CCN(c2nc(C(C)(C)C)nc3c2cnn3C)CC1 [CBK307364],"viability at 28.5 h, 10 µM",96.7%
Cc1cc(C)n(CC2CCCN2CCc2ccccn2)n1 (centres unmarked) [CBK304846],"viability at 28.5 h, 10 µM",100%
Cn1c(=O)n(C)c2cc(S(=O)(=O)ON3C(=O)c4cccc5cc([N+](=O)[O-])cc(c45)C3=O)ccc21 [CBK267566],"viability at 28.5 h, 10 µM",91.6%
CN(C)/C=N/c1nc(=O)[nH]c2c1ncn2C1CC(O)C(CO)O1 (centres unmarked) [CBK201285],"viability at 28.5 h, 10 µM",118%
COc1ccc(-c2cc3cccn(CC(=O)N(C)C)c-3n2)cc1 [CBK285382],"viability at 28.5 h, 10 µM",105%
Cc1ccc(-c2csc(NC(=O)CN3C(=O)CCC3=O)n2)c(C)c1 [CBK287348],"viability at 28.5 h, 10 µM",86.7%
Cc1cn([C@H]2C[C@@H](O)[C@@H](CO)O2)c(N)nc1=O [CBK201327],"viability at 28.5 h, 10 µM",100%
CSc1nsc(SCC(=O)N2CCN(C(c3ccccc3)c3ccccc3)CC2)n1 [CBK268071],"viability at 28.5 h, 10 µM",89.2%
CCNS(=O)(=O)c1ccc(NS(=O)(=O)c2cc(C(=O)O)ccc2C)cc1 [CBK295296],"viability at 28.5 h, 10 µM",82.8%
C(=C\c1ccccc1)/CN1CCN(CCc2ccccc2)CC1 [CBK261893],"viability at 28.5 h, 10 µM",93.4%
CC[C@H]1CN(C(=O)C2CC2)CC[C@H]1CC(=O)N(C)CC#N [CBK289132],"viability at 28.5 h, 10 µM",85.9%
Cc1ccc(S(=O)(=O)N2CCN(C(=O)C3C4C=CC(C4)C3C(=O)O)CC2)cc1 (centres unmarked) [CBK286944],"viability at 28.5 h, 10 µM",106%
Cc1ccc(CSCc2nc3ccccc3[nH]2)cc1 [CBK265238],"viability at 28.5 h, 10 µM",90%
COc1c(C)cccc1C(=O)N1CCC(c2cc3cnccc3[nH]2)CC1 [CBK283460],"viability at 28.5 h, 10 µM",89.9%
Cc1ccc(-c2nc3ccccc3s2)cc1NC(=O)c1sc2ccccc2c1Cl [CBK263865],"viability at 28.5 h, 10 µM",93.9%
CCn1c(=O)n(CC(=O)N2CCCCCC2)c2cccnc21 [CBK283942],"viability at 28.5 h, 10 µM",97.1%
COc1cc(CNn2cnnc2S)ccc1OCC(N)=O [CBK265877],"viability at 28.5 h, 10 µM",90%
Cc1csc(CCNCc2c(C(C)C)nn(C)c2N(C)C)n1 [CBK304140],"viability at 28.5 h, 10 µM",89%
CCCCc1ccc(Nc2csc(N)n2)cc1 [CBK020594],"viability at 28.5 h, 10 µM",82.5%
COCCn1c(CO)nnc1[C@H]1C[C@H](NC(=O)c2ccc(F)cc2F)C1 [CBK306665],"viability at 28.5 h, 10 µM",102%
